This is an account of results in PubChem BioAssay AID652285 (Sanford-Burnham Center for Chemical Genomics, 2013).

Each structure is given as a SMILES string. “And” between values parts separate entries of the source, which are not always exact repeats. Equal values may be shown once. The source made the active and inactive calls.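 How the source made its calls: active means IC50 at or below 60 µM; inactive means the rest.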 A value given as a limit tells only on which side of the number the result lay.

Chain of COP9 signalosome complex subunit 5 (Homo sapiens) (Q92905 whole entry, looked up, one chain of several): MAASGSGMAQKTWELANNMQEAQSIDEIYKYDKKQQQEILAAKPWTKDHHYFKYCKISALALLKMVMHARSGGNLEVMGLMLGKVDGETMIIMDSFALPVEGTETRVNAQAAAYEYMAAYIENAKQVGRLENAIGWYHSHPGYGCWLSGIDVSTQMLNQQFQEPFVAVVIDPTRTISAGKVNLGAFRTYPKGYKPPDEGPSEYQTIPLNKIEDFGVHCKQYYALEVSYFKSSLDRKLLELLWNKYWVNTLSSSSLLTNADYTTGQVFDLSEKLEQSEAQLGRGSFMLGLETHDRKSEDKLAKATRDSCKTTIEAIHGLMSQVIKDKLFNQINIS

The assay has as its target COP9 signalosome complex subunit 5 (Homo sapiens) (UniProt Q92905). Kind of assay: inhibitors of Csn5 cullin deneddylation – biochemical, fluorescence polarization, Cul-Nedd8-OG substrate, selectivity assay for RPN11 inhibitor project, SAR follow-up (AID 652285). Particulars: Csn5 deneddylation of SCF-Nedd8-OG.
A word on the IC50: it is the concentration that inhibits the measured activity by half. For `O=C(Sc1cccc2cccnc12)c1c(Cl)cccc1Cl`, the IC50 was 3.95 µM.
As to `COC(=O)[C@@H](NC(=O)c1cnc2c(SSc3cccc4cc(C(=O)N[C@H](C(=O)OC)C(C)C)cnc34)cccc2c1)C(C)C`, the IC50 is 7.62 µM.
As to `N#Cc1ccc(C(=O)Sc2cccc3cccnc23)cc1`, the IC50 was > 95 µM (inactive).
The same measure for `O=C(Sc1cccc2cccnc12)c1cccc(C(F)(F)F)c1`: > 95 µM (inactive); for `COC(=O)[C@H](C)N(C)C(=O)c1cnc2c(SSc3cccc4cc(C(=O)N(C)[C@@H](C)C(=O)OC)cnc34)cccc2c1`: 8.63 µM.
Next, `N#Cc1cccc(C(=O)Sc2cccc3cccnc23)c1`: “inactive”; `O=C(O)[C@@H]1CCCN1C(=O)c1cnc2c(SSc3cccc4cc(C(=O)N5CCC[C@H]5C(=O)O)cnc34)cccc2c1`: 5.4 µM; `O=C(Sc1cccc2cccnc12)c1ccc(C(F)(F)F)cc1`: 6.26 µM.
The same measure for `COc1ccc(C(=O)Sc2cccc3cccnc23)cc1OC`: 8.81 µM.
Turning to `Cc1ccccc1C(=O)Sc1cccc2cccnc12`, the IC50 was 20.8 µM.
The same measure for `COC(=O)[C@H](C)NC(=O)c1cnc2c(SSc3cccc4cc(C(=O)N[C@@H](C)C(=O)OC)cnc34)cccc2c1`: 15.4 µM; for `COc1ccc(C(=O)Sc2cccc3cccnc23)cc1F`: 6.5 µM.
On to `O=C(Sc1cccc2cccnc12)c1ccccc1Br`, for which the IC50 was 5.44 µM.
For the compound `O=C(Sc1cccc2cccnc12)c1ccccc1[N+](=O)[O-]`, the IC50 is 8.24 µM.
For the compound `COC(=O)[C@H](C)NC(=O)c1ccnc2c(SSc3cccc4c(C(=O)N[C@@H](C)C(=O)OC)ccnc34)cccc12`, the IC50 was 16.8 µM.
Take `COc1ccc(C(=O)Sc2cccc3cccnc23)cc1`: the IC50 is 9.61 µM.
For the compound `O=C(Sc1cccc2cccnc12)c1ccccc1I`, the IC50 is 11.2 µM.
Next, `COC(=O)[C@H](CC(C)C)NC(=O)c1cnc2c(SSc3cccc4cc(C(=O)N[C@@H](CC(C)C)C(=O)OC)cnc34)cccc2c1`: 12.7 µM.
Turning to `COC(=O)[C@H](CO)NC(=O)c1cnc2c(SSc3cccc4cc(C(=O)N[C@@H](CO)C(=O)OC)cnc34)cccc2c1`, the IC50 is 42.7 µM.
For `COc1ccccc1C(=O)Sc1cccc2cccnc12`, the IC50 is 14.2 µM and 8.37 µM.
`O=C(Sc1cccc2cccnc12)c1ccccc1Cl`: the IC50 is 14.1 µM.
For `C[C@@H](C(=O)O)N(C)C(=O)c1cnc2c(SSc3cccc4cc(C(=O)N(C)[C@@H](C)C(=O)O)cnc34)cccc2c1`, the IC50 is 16.6 µM.
Turning to `CC(C)C[C@H](NC(=O)c1cnc2c(SSc3cccc4cc(C(=O)N[C@@H](CC(C)C)C(=O)O)cnc34)cccc2c1)C(=O)O`, the IC50 is 9.33 µM.
On to `O=C(Sc1cccc2cccnc12)c1ccccc1OC(F)(F)F`, for which the IC50 is 9.48 µM.
Take `Cc1ccc(C(=O)Sc2cccc3cccnc23)cc1`: the IC50 was > 95 µM (inactive).
For `O=C(Sc1cccc2cccnc12)c1ccccc1F`, the IC50 is > 95 µM (inactive).
For `CC(C)(C)OC(=O)CCNC(=O)c1cnc2c(SSc3cccc4cc(C(=O)NCCC(=O)OC(C)(C)C)cnc34)cccc2c1`, the IC50 is 34.7 µM.
`O=C(Sc1cccc2cccnc12)c1cccc(Cl)c1`: the IC50 is 1.91 µM.
`O=C(Sc1cccc2cccnc12)c1ccc(F)cc1`: the IC50 is 4.3 µM.
As for `O=C(Sc1cccc2cccnc12)c1ccc2c(c1)OCO2`, the IC50 was 18.3 µM.
In the case of `O=C(Sc1cccc2cccnc12)c1ccccc1`, the IC50 is 4.77 µM.
Next, `O=C(Sc1cccc2cccnc12)c1ccc(F)c(F)c1`: 5.36 µM.
With `O=C(Sc1cccc2cccnc12)c1ccc([N+](=O)[O-])cc1`, the IC50 is 20.2 µM.
Regarding `CCOc1ccccc1C(=O)Sc1cccc2cccnc12`, the IC50 was 9.27 µM and 34.4 µM.
With `O=C(Sc1cccc2cccnc12)c1ccc(F)cc1F`, the IC50 entry was “inactive”.
Turning to `O=C(Sc1cccc2cccnc12)c1cccc2ccccc12`, the IC50 is 8.9 µM.
Take `CCCc1ccc(C(=O)Sc2cccc3cccnc23)cc1`: the IC50 is 10.7 µM.
`CC[C@@H](C)[C@H](NC(=O)c1cnc2c(SSc3cccc4cc(C(=O)N[C@H](C(=O)O)[C@H](C)CC)cnc34)cccc2c1)C(=O)O`: the IC50 is 5.76 µM.
